From US10434134B2, “Peptide treatment for inflammation and fibrosis” (The Regents of the University of California, priority 2015, dated 2019)
Where a SMILES comes first, the peptide text is derived from it. Where no end group is shown, it is not given here. [ ]: non-standard residue; d: D form. Mpa = O=C(O)CCS

Experiments:
[1] = Plasma levels of peptide and MPR-intermediate after IV PEGylated-peptide 361332; type: in vivo; conditions: CD-1 mouse, n = 1
Description: Studies using the PEGylated-peptide 361332 are provided
Levels of Peptide and MPR-Intermediate in Plasma Samples

[2] = test system: Human Activated Liver Myofibroblasts; assay: Cell death of activated primary human liver myofibroblasts in culture; type: cell-based; design: concentration or dose not given beside the values
Description: (§1) Assays were used in a step-wise manner to select the safest and most efficient peptides (including apoptosis assays in activated primary human liver myofibroblasts; cell-free caspase 8 activation assays; acute liver injury/fibrogenesis models; toxicology assays in highly differentiated, primary human hepatocyte cultures and in mice).

[3] = test system: Mouse Activated Liver Myofibroblasts; assay: Cell death of activated primary mouse liver myofibroblasts in culture; type: cell-based
[4] = test system: primary mouse and human hepatocytes
Description: as §1

Mouse toxicity (in vivo) = conditions: for Mouse Toxicity (in vivo): 20 mg/kg
Description: as §1

[5] = test system: CCl4-induced acute liver injury in mice; assay: Acute CCl4 liver injury and activation of liver myofibroblasts in mice (Example 1); type: in vivo, mouse; design: serum ALT: unit not given here; conditions: for minimizing acute liver injury and activation of myofibroblasts: compared with the lead PEG peptide
Procedure: FIG. 1. The therapeutic lead peptide inhibits the activation of liver myofibroblasts and liver injury that induces fibrosis following exposure to the human hepatotoxin CCl4. A single dose of CCl4 was administered to C/EBPβ-wt mice (4). Eight hours later, animals received an IP injection of the therapeutic lead peptide (5 μg of peptide linked to PEG). Animals were sacrificed at 30 hr after the CCl4 administration. The animals receiving only CCl4 had intense activation of myofibroblasts (as determined by α-SMA) (upper row) and severe liver injury (as assessed by standard clinical examination just before sacrifice); the lead peptide blocked the discoloration and granular appearance of severe liver injury. The livers of treated mice were similar to control (second row). The histopathology induced by CCl4 was activation of myofibroblasts (α-SMA), severe liver injury (H&E stain) with collapse of the architecture (Reticulin stain). The therapeutic PEG-30 kDa-peptide decreased both the activation of myofibroblasts and the injury to the liver.
To induce acute liver injury, a single dose of the human hepatotoxin Carbon Tetrachloride (CCl4) was administered to normal mice (4). Eight hours later, animals received an IP injection of the lead therapeutic PEG-30 kDa-peptide (5 μg of the peptide linked [peptide to PEG at 1:60] to the PEG-30 kDa). Animals were sacrificed after 30 hr, at the peak of hepatocyte death as measured by ALT (a clinical end-point used routinely in clinical practice and by the FDA in the evaluation of liver toxicity in human drug studies) (16). […] There was severe acute liver injury in animals receiving CCl4 but mild-to-moderate injury in animals receiving both CCl4 and the lead therapeutic compound (FIG. 1).

[6] = test system: CCl4-induced liver fibrosis in mice; assay: Chronic 16-wk CCl4 mouse model of liver fibrosis (Example 2); type: in vivo; conditions: for decrease of liver fibrosis / Liver fibrosis, quantification of the Sirius stain (percentage fibrosis/area): CCl4 16-wk; for decrease of liver fibrosis: 7 μg IP once per week from week-8; for Liver fibrosis, quantification of the Sirius stain (percentage fibrosis/area): 7 μg peptide linked to 420 μg PEG-30 kDa once a week from week-8, n=6/group
Procedure: FIGS. 2A-2B. High efficacy of the therapeutic PEG-30 kDa-peptides in a chronic mouse model of liver fibrosis. All groups of mice (except control) received CCl4 administration for 16-wk (n=6/group). The CCl4 treatment group received only the hepatotoxin, while the other groups also received the indicated therapeutic PEG-30 kDa-peptide (7 μg of peptide linked to 420 μg PEG-30 kDa once a week) starting at week-8. FIG. 2A. Liver fibrosis was determined by quantification of the Sirius stain (percentage fibrosis/area) as described (7; 25): control (0.02+/−0.01); lead peptide (0.8+/−0.7); alternate peptide 1 (2.1+/−1.0); alternate peptide 2 (3.5+/−1.2) and CCl4 (6.7+/−1.6%). P<0.0001 for lead peptide 1 and P<0.001 for alternate peptides 1 and 2. FIG. 2B. Liver fibrosis was detected histologically by the trichrome stain for liver fibrosis as it is the clinical standard. The control animals (receiving only vehicle control) had negligible fibrosis (stage 0-1/VI); animals receiving CCl4 for 16 weeks developed severe fibrosis (stage 5/VI or 6/VI; which would be clinically significant in patients); while animals receiving CCl4 for 16 weeks and also the lead PEG-30 kDa-peptide 1 starting at week-8 had minor fibrosis (stage 1-2/VI; which would not be clinically significant in patients).
The therapeutic lead PEG-peptides underwent a systematic analysis of efficacy and safety in a classical chronic liver fibrosis model (7; 15; 24; 38). CCl4 (a human hepatotoxin) was administered to mice for 16-wk as a classical model of liver fibrosis (7). The three selected therapeutic PEG-peptides were administered once a week IP (7 μg of peptide linked to PEG) starting at week 8, once severe liver fibrosis was already established. The efficacy of the three selected PEG peptides included quantitative analysis of liver fibrosis (7). CCl4 administration to mice for 16-wk induced liver cirrhosis (FIGS. 2A and 2B). […] This mimics the treatment given for several years to a patient with established severe liver fibrosis.
The Ac-Lys-D-Ala-D-Val-Asp-NH2 was administered IP (7 μg of peptide linked to PEG-30 kDa) once/week for an additional 4 or 8 weeks. The CCl4 administration continued for 4 or 8 weeks. The Ac-Lys-D-Ala-D-Val-Asp-NH2 peptide inhibited liver fibrosis by 8-fold.
The parent peptide inhibited liver fibrosis by only 2 to 3-fold.

[7] = test system: Bleomycin-induced lung fibrosis in C/EBPβ-wt mice; assay: Bleomycin mouse model of lung fibrosis, various administration routes (Example 11); type: in vivo; conditions: for decrease in lung fibrosis: days 10, 17 and 24
Procedure: C/EBPβ-wt mice received Bleomycin administration as described above. On day-10, once the fibrotic reaction is established, mice received i) PEG-30 kDa-Lys-DAla-DVal-Asp-NH2 intraperitoneally (IP) 10 μg of peptide linked to PEG, on days 10, 17 and 24); or ii) peptide PEG-30 kDa-Lys-DAla-DVal-Asp-NH2 by inhalation (mean particle size […]—which reaches efficiently the alveoli-, 800 μg of peptide on days 10, 17 and 24; specific inhalation parameters are shown in Table 2). The peptide was administered for less than 1 hour a day [on days 10, 17, and […]] via nose-only inhalation of the test material aerosol at a nominal concentration of 1.0 mg/L [800 μg/dose]; or iii) peptide PEG-30 kDa-Lys-DAla-DVal-Asp-NH2 by intratracheal instillation (40 μg of peptide on days 10, 17 and 24).
Control groups received sterile water instead of Bleomycin; peptide IP; peptide by inhalation; or peptide by intratracheal instillation. Animals were sacrificed on day 27. The left lung was inflated with fixative, analyzed by trichrome stain and quantified in its entirety by the Odyssey Visualization microscopy software protocol to minimize analytical errors as described previously (Ramamoorthy et al., 2009, American Journal of Physiology, Endocrinology and Metabolism 297: e392-401). The right lung was snap frozen in liquid nitrogen and used for IMH, immunoblots and qRT-PCR.

[8] = liver, 30 hr after CCl4, single IP 5 μg at 8 hr

CC(C)[C@@H](NC(=O)[C@@H](C)NC(=O)[C@H](CCCCN)NC(=O)CCS)C(=O)N[C@@H](CC(=O)O)C(N)=O [Mpr-Lys-DAla-DVal-Asp-NH2] ([Mpa]K[dA][dV]D-NH2)
Conc. (ng/mL) in plasma ([1]; 4 hours after IV PEGylated-peptide 361332, 7.5 mg/kg peptide equivalent): 1291 ng/mL | Conc. (ng/mL) in plasma ([1]; 8 hours after IV PEGylated-peptide 361332, 7.5 mg/kg peptide equivalent): 900 ng/mL | Conc. (ng/mL) in plasma ([1]; 24 hours after IV PEGylated-peptide 361332, 7.5 mg/kg peptide equivalent): 921 ng/mL | Conc. (ng/mL) in plasma ([1]; 48 hours after IV PEGylated-peptide 361332, 7.5 mg/kg peptide equivalent): 1523 ng/mL

Ac-Lys-Ala-Val-Asp-NH2 (Ac-KAVD-NH2) [Parent peptide, reference compound]
Human Activated Liver Myofibroblasts Death Cell (%) [2]: 80.9% | Mouse Activated Liver Myofibroblasts Death Cell (%) [20 ng/ml] [3]: 89.5% | Hepatocyte Toxicity [20 ng/ml] [4]: No toxicity | Mouse Toxicity (in vivo) (Mouse toxicity (in vivo)): No: | toxicity issues observed in mice (Mouse toxicity (in vivo); mouse, in vivo): no toxicity issues

PEG-30 kDa-Lys-DAla-DVal-Asp-NH2 [Lead therapeutic peptide]
serum ALT ([5]; 30 hr after CCl4, single IP treatment (5 μg peptide linked to PEG-30 kDa) 8 hr after CCl4): 6,754+/−905 | acute liver injury severity ([5]; CCl4 plus peptide, 30 hr): mild-to-moderate | expression of α-SMA in the liver (activated liver myofibroblasts) ([5]; CCl4 plus peptide, 30 hr): minor expression | IL-6 mRNA [5, 8]: normal | TNF-α mRNA, increase from control values [5, 8]: 4 fold | albumin mRNA, decrease from control values [5, 8]: 2 fold | Human Activated Liver Myofibroblasts Death Cell (%) [2]: 86.2% | decrease of liver fibrosis [6]: > 8 fold | Liver fibrosis, quantification of the Sirius stain (percentage fibrosis/area) [6]: 0.8+/−0.7% | Liver fibrosis stage, trichrome stain ([6]; CCl4 16 weeks, peptide starting at week-8): 1-2 /VI | Mouse Activated Liver Myofibroblasts Death Cell (%) [20 ng/ml] [3]: 90.5% | Hepatocyte Toxicity [20 ng/ml] [4]: No toxicity | inhibition in lung alveolar epithelial cell apoptosis ([7]; IP): ~60% | surfactant protein-C (SFPC) expression by quantitative IHC ([7]; IP): essentially normal | decrease in lung fibrosis ([7]; IP 10 μg of peptide linked to PEG): ~60% | lung inflammation as determined by the expression of IL-23R (marker of Th-17 cells) ([7]; all treatments (IP, inhalation, intratracheal)): decreased | improvement of Tidal Volume ([7]; all treatments (IP, intratracheal instillation, inhalation), 14-day treatment): > 35% | inhibition in lung alveolar epithelial cell apoptosis ([7]; inhalation): ~60% | surfactant protein-C (SFPC) expression by quantitative IHC ([7]; inhalation): essentially normal | decrease in lung fibrosis ([7]; inhalation 800 μg of peptide): ~60% | efficacy on lung fibrosis ([7]; intratracheal instillation 40 μg of peptide, days 10, 17 and 24 (therapeutic positive control)): outstanding efficacy | TGFβ1 by RT-PCR ([7]; three peptide formulations): decreased | collagen α 1 by RT-PCR ([7]; three peptide formulations): decreased | Mouse Toxicity (in vivo) (Mouse toxicity (in vivo)): No:

Peg-30kDa-Lys-Ala-DVal-Asp-NH2 [Alternate therapeutic peptide 2]
minimizing acute liver injury and activation of myofibroblasts [5]: performed similarly to the lead PEG peptide | Human Activated Liver Myofibroblasts Death Cell (%) [2]: 72.3% | decrease of liver fibrosis [6]: ~2 fold | Liver fibrosis, quantification of the Sirius stain (percentage fibrosis/area) [6]: 3.5+/−1.2% | Mouse Activated Liver Myofibroblasts Death Cell (%) [20 ng/ml] [3]: 57.1% | Hepatocyte Toxicity [20 ng/ml] [4]: No toxicity

Peg-30kDa-Lys-DAla-Val- Asp-NH2 [Alternate therapeutic peptide 1]
minimizing acute liver injury and activation of myofibroblasts [5]: performed similarly to the lead PEG peptide | Human Activated Liver Myofibroblasts Death Cell (%) [2]: 67.9% | decrease of liver fibrosis [6]: ~3 fold | Liver fibrosis, quantification of the Sirius stain (percentage fibrosis/area) [6]: 2.1+/−1.0% | Mouse Activated Liver Myofibroblasts Death Cell (%) [20 ng/ml] [3]: 79.9% | Hepatocyte Toxicity [20 ng/ml] [4]: No toxicity

[dK]AV[dD]-NH2
Human Activated Liver Myofibroblasts Death Cell (%) [2]: 44.0%

[dK]A[dV]D-NH2
Human Activated Liver Myofibroblasts Death Cell (%) [2]: 30.6%
